Data from ChEMBL document CHEMBL2150958, “Tuned-Affinity Bivalent Ligands for the Characterization of Opioid Receptor Heteromers” (ACS Med Chem Lett, 2012).

How the values were obtained:
[1] = molecular target: T1, Opioid receptors; mu and delta (Mus musculus, UniProt P42866+P32300); experiment: Displacement of [3H]-DAMGO from mouse MOR/DOR expressed in HEK293 cells; type: cell-based
[2] = molecular target: T1, Opioid receptors; mu and delta; experiment: Displacement of [3H]-DPDPE from mouse MOR/DOR expressed in HEK293 cells; type: cell-based
Mu-type opioid receptor = Mu-type opioid receptor (Mus musculus, UniProt P42866); experiment: Displacement of [3H]-DAMGO from mouse MOR expressed in HEK293 cells; type: cell-based
Mu-type opioid receptor, sequence (P42866 whole entry): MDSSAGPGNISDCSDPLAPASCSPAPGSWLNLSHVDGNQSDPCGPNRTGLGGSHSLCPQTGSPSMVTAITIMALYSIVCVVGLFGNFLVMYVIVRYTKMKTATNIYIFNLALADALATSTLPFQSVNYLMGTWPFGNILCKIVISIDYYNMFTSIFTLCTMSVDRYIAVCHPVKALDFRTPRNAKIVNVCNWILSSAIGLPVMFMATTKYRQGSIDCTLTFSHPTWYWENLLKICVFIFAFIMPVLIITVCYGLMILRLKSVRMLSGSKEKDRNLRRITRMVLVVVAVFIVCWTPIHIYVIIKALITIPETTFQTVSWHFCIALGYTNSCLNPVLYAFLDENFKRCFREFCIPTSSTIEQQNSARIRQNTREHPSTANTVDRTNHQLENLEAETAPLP

[3] = molecular target: Delta-type opioid receptor (Mus musculus, UniProt P32300); experiment: Displacement of [3H]-DPDPE from mouse DOR expressed in HEK293 cells; type: cell-based
Delta-type opioid receptor, sequence (P32300 whole entry): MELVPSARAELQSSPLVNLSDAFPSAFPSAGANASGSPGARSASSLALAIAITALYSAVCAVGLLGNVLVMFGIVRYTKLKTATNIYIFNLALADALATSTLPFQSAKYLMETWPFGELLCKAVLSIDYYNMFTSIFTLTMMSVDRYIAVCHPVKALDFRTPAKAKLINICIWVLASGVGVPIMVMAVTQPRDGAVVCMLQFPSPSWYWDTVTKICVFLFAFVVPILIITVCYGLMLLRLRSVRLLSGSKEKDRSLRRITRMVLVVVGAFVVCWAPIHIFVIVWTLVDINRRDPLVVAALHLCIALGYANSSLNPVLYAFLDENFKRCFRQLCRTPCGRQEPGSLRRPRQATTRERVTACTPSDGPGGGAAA

Mus musculus = organism: Mus musculus; experiment: Selectivity ratio of Ki for mouse DOR to Ki for mouse MOR/DOR

SMILES	pKi [1]	pKi [2]	Ki (Mu-type opioid receptor)	Ki [3]	Ratio Ki (Mus musculus)
CNC(=O)COCC(=O)NCCCCCNC(=O)COCC(=O)N[C@@H]1CC[C@@]2(O)[C@H]3Cc4ccc(O)c5c4[C@@]2(CCN3CC2CC2)[C@H]1O5	8.38	7.79	0.324 nM	30.9 nM	
Nc1cccc2c3c([nH]c12)[C@@H]1Oc2c(OCCc4ccccc4)ccc4c2[C@@]12CCN(CC1CC1)[C@H](C4)[C@]2(O)C3	6.94	7.46	120 nM	91.2 nM	
CCN(CC)C(=O)c1ccc(C(=C2CCNCC2)c2c(C)cc(NC(=O)COCC(=O)NCCCCCNC(=O)COCC(=O)NC)cc2C)cc1.Cl	5.92	5.78	550 nM	2880 nM	
CN1CC[C@]23c4c5ccc(O)c4O[C@H]2[C@@H](NC(=O)COCC(=O)NCCCCCNC(=O)COCC(=O)Nc2cccc4c6c([nH]c24)[C@@H]2Oc4c(OCCc7ccccc7)ccc7c4[C@@]24CCN(CC2CC2)[C@H](C7)[C@]4(O)C6)CC[C@@]3(O)[C@H]1C5.Cl	8.21	7.34	9.77 nM	204 nM	
Cl.Oc1ccc2c3c1O[C@H]1c4[nH]c5ccccc5c4C[C@@]4(O)[C@@H](C2)N(CC2CC2)CC[C@]314 [NALTRINDOLE HYDROCHLORIDE]	8.46	8.26	16.6 nM	2.63 nM	
CCN(CC)C(=O)c1ccc(C(=C2CCNCC2)c2c(C)cc(NC(=O)COCC(=O)NCCCCCNC(=O)COCC(=O)N[C@@H]3CC[C@@]4(O)[C@H]5Cc6ccc(O)c7c6[C@@]4(CCN5CC4CC4)[C@H]3O7)cc2C)cc1.Cl	> 9	8.6	< 1 nM	20 nM	10
CNC(=O)COCC(=O)NCCCCCNC(=O)COCC(=O)N[C@H]1CC[C@@]2(O)[C@H]3Cc4ccc(O)c5c4[C@@]2(CCN3C)[C@H]1O5	6.9		22.4 nM		
